Measured values: patent US20250214993A1, “AROMATIC RING COMPOUND AND USE THEREOF” (SHANGHAI SHIJIANG BIOTECHNOLOGY CO., LTD, priority 2022, published 2025)

Assays:
Assay type in all cases: cell-based
Con-NCI-H82 cell = test: Cell viability (Promega CellTiter-Glo, intracellular ATP), IC50 on Con-NCI-H82 cell; conditions: Homo sapiens; normal untreated NCI-H82 cell (control)
Description: (§1) The expression of NNMT protein in NCI-H82 cell was overexpressed by inserting the NNMT gene into NCI-H82 cell using a viral vector, and the NNMT protein-overexpressing NCI-H82 cell (ov-NNMT NCI-H82 cell) was obtained. The normal and untreated NCI-H82 cell (Con-NCI-H82 cell) was used as control. The expressing content of NNMT protein in the ov-NNMT NCI-H82 cell and Con-NCI-H82 cell was detected using Western Blot assay (as shown in FIG. 1), it could be seen from FIG. 1 that the NNMT protein was overexpressed in the ov-NNMT NCI-H82 cell compared with the expression level of NNMT protein in the Con-NCI-H82 cell.
(§2) The cell viability was detected using the Promega CellTiter-Glo kit which reflected cell viability by measuring intracellular ATP content. The Con-NCI-H82 cell and ov-NNMT NCI-H82 cell was cultured in 10% fetal bovine serum-containing RPMI1640 medium (+P/S).

ov-NNMT NCI-H82 cell = test: Cell viability (Promega CellTiter-Glo, intracellular ATP), IC50 on NNMT-overexpressing NCI-H82 cell; conditions: Homo sapiens; NCI-H82 cell overexpressing NNMT protein
Description: as §1, §2

mPTP-active Daoy cell = test: Cell viability (Promega CellTiter-Glo), IC50 on mPTP-active Daoy cell; conditions: Homo sapiens; Daoy cell transfected with empty virus vector
mPTP-inactive Daoy cell = test: Cell viability (Promega CellTiter-Glo), IC50 on mPTP-inactive Daoy cell (PPIF shRNA); conditions: Homo sapiens; Daoy cell transfected with PPIF shRNA vector

| SMILES | IC50 (Con-NCI-H82 cell) | IC50 (ov-NNMT NCI-H82 cell) | IC50 (mPTP-active Daoy cell) | IC50 (mPTP-inactive Daoy cell) |
| --- | --- | --- | --- | --- |
| Cc1ccc(C(=O)C[n+]2ccc3c(c2)CCN3Cc2ccccc2)cc1 [AB24995] | 0.92 µM | 4.15 µM | 6.32 µM | 1.98 µM |
| O=C1c2ccc(OC(F)(F)F)cc2CCC1[n+]1ccc2c(ccn2Cc2ccccc2)c1 (stereo not drawn) [AB24997] | 0.498 µM | 3.12 µM | 8.56 µM | 2.34 µM |
| O=C1c2ccc(OC(F)(F)F)cc2CCC1[n+]1ccc2c(c1)CC(c1ccccc1)N2 (stereo not drawn) [AB27101] | 0.75 µM | 2.31 µM | 5.68 µM | 1.93 µM |
| O=C(C[n+]1ccc2c(c1)CCC(c1ccccc1)N2)c1ccc(OC(F)(F)F)cc1 (stereo not drawn) [AB27103] | 1.48 µM | 11 µM | 8.98 µM | 4.09 µM |
| O=C1c2cc(OC(F)(F)F)ccc2CCC1[n+]1ccc2c(c1)CCC(c1ccccc1)N2 (stereo not drawn) [AB27132] | 0.917 µM | 4.87 µM | 7.95 µM | 3.27 µM |
| O=C1c2cc(Cl)ccc2CCC1[n+]1ccc(NCc2ccccc2)nc1 (stereo not drawn) [AB27138] | 1.1 µM | 9.82 µM | 8.82 µM | 3.62 µM |
| O=C1c2cc(Cl)ccc2CCC1[n+]1cnc2c(ccn2Cc2ccccc2)c1 (stereo not drawn) [AB27140] | 0.182 µM | 1.58 µM | 3.66 µM | 1.48 µM |
| CCc1cn(Cc2ccccc2)c2cc[n+](C3CCc4ccc(Cl)cc4C3=O)cc12 (stereo not drawn) [AB27171] | 0.063 µM | 1.05 µM | 1.94 µM | 0.69 µM |
| O=C1c2cc(Cl)ccc2CCC1[n+]1ccc2c(c1)c(Cl)cn2Cc1ccccc1 (stereo not drawn) [AB27172] | 0.203 µM | 2.04 µM | 3.94 µM | 1.38 µM |
| O=C1c2cc(Cl)ccc2CCC1[n+]1ccc2c(c1)c(F)cn2Cc1ccccc1 (stereo not drawn) [AB27173] | 0.135 µM | 2.03 µM | 3.43 µM | 1.02 µM |
| Cc1cn(Cc2ccccc2)c2cc[n+](C3CCc4ccc(OC(F)(F)F)cc4C3=O)cc12 (stereo not drawn) [AB27175] | 0.226 µM | 2.86 µM | 3.86 µM | 1.23 µM |
| Cc1ccc2c(c1)CCC(n1ccc3c[n+](C(C)c4ccccc4)ccc31)C2 (stereo not drawn) [AB27181] | 0.017 µM | 0.245 µM | 0.19 µM | 0.07 µM |
| O=C1c2cc(Cl)ccc2CCC1n1ccc2c[n+](Cc3ccccc3)ccc21 (stereo not drawn) [AB27187] | 0.014 µM | 0.252 µM | 0.21 µM | 0.05 µM |
| Cc1cn(C2CCc3ccc(Cl)cc3C2=O)c2cc[n+](Cc3ccccc3)cc12 (stereo not drawn) [AB27188] | 0.014 µM | 0.214 µM | 0.23 µM | 0.04 µM |
| O=C1c2cc(C(F)(F)F)ccc2CCC1n1ccc2c[n+](Cc3ccccc3)ccc21 (stereo not drawn) [AB27190] | 0.013 µM | 0.182 µM | 0.13 µM | 0.04 µM |
| O=C1c2cc(OC(F)(F)F)ccc2CCC1n1ccc2c[n+](Cc3ccccc3)ccc21 (stereo not drawn) [AB27191] | 0.01 µM | 0.184 µM | 0.25 µM | 0.04 µM |
| Cc1ccc2c(c1)C(=O)C(n1ccc3c[n+](Cc4ccccc4)ccc31)CC2 (stereo not drawn) [AB27192] | 0.012 µM | 0.214 µM | 0.19 µM | 0.03 µM |
| Cc1ccc2c(c1)CCC(n1ccc3c[n+](Cc4ccccc4)ccc31)C2=O (stereo not drawn) [AB27193] | 0.009 µM | 0.154 µM | 0.17 µM | 0.03 µM |
| O=C1c2cc(Cl)ccc2CCC1[n+]1ccc2cn(-c3ccccc3)cc2c1 (stereo not drawn) [AB27196] | 0.577 µM | 5.51 µM | 6.57 µM | 2.08 µM |
| O=C1c2cc(Cl)ccc2CCC1[n+]1ccc2cn(Cc3ccccc3)cc2c1 (stereo not drawn) [AB27197] | 0.174 µM | 1.7 µM | 3.57 µM | 1.02 µM |

| SMILES | IC50 (Con-NCI-H82 cell) | IC50 (ov-NNMT NCI-H82 cell) | IC50 (mPTP-active Daoy cell) | IC50 (mPTP-inactive Daoy cell) |
| --- | --- | --- | --- | --- |
| O=C1c2ccc(C(F)(F)F)cc2CCC1[n+]1ccc2cn(Cc3ccccc3)cc2c1 (stereo not drawn) [AB27294] | 1.05 µM | 6.53 µM | – | – |
| O=C1c2ccc(OC(F)(F)F)cc2CCC1[n+]1ccc2cn(Cc3ccccc3)cc2c1 (stereo not drawn) [AB27295] | 0.717 µM | 8.48 µM | – | – |
| Cc1ccc(C(=O)C[n+]2ccc3cn(Cc4ccccc4)cc3c2)cc1 [AB27296] | 0.396 µM | 3.58 µM | – | – |
| Cc1ccc(C(=O)CN(CC(=O)c2ccc(C)cc2)c2cc[n+](Cc3ccccc3)cc2)cc1 [AB27299] | 0.674 µM | 1.84 µM | – | – |
| CC(=O)C[n+]1ccc2c(ccn2C2CCc3ccc(Cl)cc3C2=O)c1 (stereo not drawn) [AB27313] | 4.37 µM | 7.36 µM | – | – |
| O=C(C[n+]1ccc2c(ccn2C2CCc3ccc(Cl)cc3C2=O)c1)c1ccccc1 (stereo not drawn) [AB27314] | 3.04 µM | 5.58 µM | – | – |
| Cc1ccc(C(=O)C[n+]2ccc(NCc3ccccc3)cc2C)cc1C [AB27327] | 0.067 µM | 1.04 µM | – | – |
| Cc1ccc(C(=O)C[n+]2ccc(NCc3cccc(C)n3)cc2C)cc1 [AB27328] | 2.79 µM | 8.47 µM | – | – |
| Cc1ccc(C(=O)C[n+]2ccc(NCc3ccc(C)nc3)cc2C)cc1 [AB27330] | 5.11 µM | 13.5 µM | – | – |
| Cn1cc(Cc2ccccc2)c2cc[n+](C3CCc4ccc(OC(F)(F)F)cc4C3=O)cc21 (stereo not drawn) [AB27339] | 0.341 µM | 2.9 µM | – | – |
| Cc1ccc(C(=O)C[n+]2ccc3c(Cc4ccccc4)cn(C)c3c2)cc1 [AB27341] | 3.59 µM | 10.5 µM | – | – |
| Cc1ccc(C(=O)C[n+]2ccc3c(Cc4ccccc4)cn(C)c3c2C)cc1 [AB27343] | 2.04 µM | 5.87 µM | – | – |
| O=C1c2cc(F)ccc2CCC1n1ccc2c[n+](Cc3ccccc3)ccc21 (stereo not drawn) [AB27353] | 0.019 µM | 0.332 µM | – | – |
| CC(c1ccccc1)[n+]1ccc2c(ccn2C2CCc3ccc(F)cc3C2=O)c1 (stereo not drawn) [AB27354] | 0.013 µM | 0.222 µM | – | – |
| Cc1cc2c[n+](Cc3ccccc3)ccc2n1CC(=O)c1ccc(C(F)(F)F)cc1 [AB27357] | 0.074 µM | 1.22 µM | – | – |
| Cc1cc2c[n+](Cc3ccccc3)ccc2n1CC(=O)c1ccc(OC(F)(F)F)cc1 [AB27358] | 0.083 µM | 1.09 µM | – | – |
| Cc1cn(C2CCc3ccc(F)cc3C2=O)c2cc[n+](Cc3ccccc3)cc12 (stereo not drawn) [AB27460] | 0.034 µM | 0.438 µM | – | – |
| Cc1cn(CC(=O)c2ccc(OC(F)(F)F)cc2)c2cc[n+](Cc3ccccc3)cc12 [AB27461] | 1.98 µM | 9.35 µM | – | – |
| Cc1cn(C2CCc3ccc(C(F)(F)F)cc3C2=O)c2cc[n+](Cc3ccccc3)cc12 (stereo not drawn) [AB27464] | 0.175 µM | 1.35 µM | – | – |
| Cc1cn(C2CCc3ccc(OC(F)(F)F)cc3C2=O)c2cc[n+](Cc3ccccc3)cc12 (stereo not drawn) [AB27465] | 0.16 µM | 1.03 µM | – | – |

| SMILES | IC50 (Con-NCI-H82 cell) | IC50 (ov-NNMT NCI-H82 cell) | IC50 (mPTP-active Daoy cell) | IC50 (mPTP-inactive Daoy cell) |
| --- | --- | --- | --- | --- |
| Cc1cn(C2CCc3ccc(C(F)(F)F)cc3C2=O)c2cc[n+](C(C)c3ccccc3)cc12 (stereo not drawn) [AB27468] | 0.571 µM | 6.03 µM | – | – |
| Cc1cn(C2CCc3ccc(OC(F)(F)F)cc3C2=O)c2cc[n+](C(C)c3ccccc3)cc12 (stereo not drawn) [AB27469] | 0.427 µM | 5.43 µM | – | – |
| Cc1cc2c[n+](Cc3ccccc3)ccc2n1C1CCc2ccc(F)cc2C1=O (stereo not drawn) [AB27473] | 0.081 µM | 1.21 µM | – | – |
| O=C1c2cc(F)ccc2CCC1[n+]1ccc2cn(Cc3ccccc3)cc2c1 (stereo not drawn) [AB27477] | 0.164 µM | 1.98 µM | – | – |
| Cc1cn(CC(=O)c2cccc(F)c2)c2cc[n+](Cc3ccccc3)cc12 [AB27478] | 0.023 µM | 0.283 µM | – | – |
| Cc1cn(CC(=O)c2cccc(F)c2)c2cc[n+](C(C)c3ccccc3)cc12 (stereo not drawn) [AB27479] | 0.258 µM | 2.05 µM | – | – |
| CC(c1ccccc1)n1cc2cc[n+](C3CCc4ccc(F)cc4C3=O)cc2c1 (stereo not drawn) [AB27480] | 0.181 µM | 2.33 µM | – | – |
| Cc1ccc(C(=O)C[n+]2cc3c(cc2Cl)c(Cc2ccccc2)cn3C)cc1 [AB27482] | 3.42 µM | 9.57 µM | – | – |
| Cc1c(Cl)c2c[n+](Cc3ccccc3)ccc2n1CC(=O)c1cccc(C(F)(F)F)c1 [AB27484] | 1.19 µM | 8.03 µM | – | – |
| Cc1c(Cl)c2c[n+](Cc3ccccc3)ccc2n1C1CCc2ccc(Cl)cc2C1=O (stereo not drawn) [AB27485] | 0.504 µM | 7.1 µM | – | – |
| O=C(Cn1c(Br)cc2c[n+](Cc3ccccc3)ccc21)c1cccc(C(F)(F)F)c1 [AB27490] | 0.019 µM | 0.319 µM | – | – |
| Cc1c(C)n(CC(=O)c2cccc(C(F)(F)F)c2)c2cc[n+](Cc3ccccc3)cc12 [AB27493] | 0.281 µM | 3.45 µM | – | – |
| O=C(Cn1ncc2c[n+](Cc3ccccc3)ccc21)c1cccc(C(F)(F)F)c1 [AB27499] | 0.921 µM | 6.84 µM | – | – |
| O=C(Cn1cnc2c[n+](Cc3ccccc3)ccc21)c1cccc(OC(F)(F)F)c1 [AB31702] | 5.46 µM | 17.5 µM | – | – |
| O=C(Cn1cnc2c[n+](Cc3ccccc3)ccc21)c1cccc(C(F)(F)F)c1 [AB31703] | 2.15 µM | 12.3 µM | – | – |
| O=C(Cn1ncc2c[n+](Cc3ccccc3)ccc21)c1ccc(C(F)(F)F)cc1 [AB31705] | 5.37 µM | 19 µM | – | – |
| Cc1ccc2c(c1)C(=O)C(n1ncc3c[n+](Cc4ccccc4)ccc31)CC2 (stereo not drawn) [AB31776] | 0.146 µM | 2.55 µM | – | – |
| CC(c1ccccc1)[n+]1ccc2c(cnn2C2CCc3ccc(Cl)cc3C2=O)c1 (stereo not drawn) [AB31806] | 0.257 µM | 2.96 µM | – | – |
